According to publication PMC12040169 (PLOS Biology, 2025):

Test: in vitro
Details: human, hela cells, % viability

SMILES | viability at 28.5 h, 10 µM [%]
COc1cc(CN2CCC3(CC2)CN(C(=O)CO)c2ccccc23)cc(OC)c1OC [CBK131494] | 94
O=C(CO)N1CC2(CCN(CCc3c[nH]c4ccccc34)CC2)c2ccccc21 [CBK131503] | 98.5
O=C(CO)N1CC2(CCN(CCS(=O)(=O)c3ccccc3)CC2)c2ccccc21 [CBK131505] | 97.9
O=C(CO)N1CC2(CCN(CCCn3c(=O)[nH]c4ccccc43)CC2)c2ccccc21 [CBK131506] | 91.9
O=C(CN1CCC2(CC1)CN(C(=O)CO)c1ccccc12)Nc1ccc(F)c(Cl)c1 [CBK131509] | 92.3
O=C(CO)N1CC2(CCN(Cc3cc(=O)[nH]c(=O)[nH]3)CC2)c2ccccc21 [CBK131510] | 106
COc1ccc(OCCN2CCC3(CC2)CN(C(=O)CO)c2ccccc23)cc1 [CBK131512] | 103
Cc1nc(CN2CCC3(CC2)CN(C(=O)CO)c2ccccc23)cs1 [CBK131523] | 93.5
COc1cc(CN2CCC3(CC2)CN(CCO)c2ccccc23)cc(OC)c1OC [CBK131524] | 94.9
OCCN1CC2(CCN(Cc3cccc(Oc4ccccc4)c3)CC2)c2ccccc21 [CBK131528] | 88.7
CSCCC(=O)N1CCCC2(CCN(C(=O)c3cc(F)c(F)cc3F)C2)C1 (centres unmarked) [CBK131557] | 93.7
Cc1ccc(S(=O)(=O)CC(=O)N2CCCC3(CCN(C(=O)c4cc(F)c(F)cc4F)C3)C2)cc1 (centres unmarked) [CBK131558] | 99
COc1ccc2[nH]cc(CC(=O)N3CCCC4(CCN(C(=O)c5cc(F)c(F)cc5F)C4)C3)c2c1 (centres unmarked) [CBK131562] | 88.6
O=C(c1cncnc1)N1CCCC2(CCN(C(=O)c3cc(F)c(F)cc3F)C2)C1 (centres unmarked) [CBK131564] | 106
O=C(c1ccc2[nH]c(=O)[nH]c2c1)N1CCCC2(CCN(C(=O)c3cc(F)c(F)cc3F)C2)C1 (centres unmarked) [CBK131566] | 106
O=C(O)CCC(=O)N1CCCC2(CCN(C(=O)Cc3c[nH]c4ccccc34)C2)C1 (centres unmarked) [CBK131572] | 91.2
N#Cc1cccc(C(=O)N2CCCC3(CCN(C(=O)Cc4c[nH]c5ccccc45)C3)C2)c1 (centres unmarked) [CBK131581] | 93.4
O=C(Cc1c[nH]c2ccccc12)N1CCC2(CCCN(C(=O)c3cscn3)C2)C1 (centres unmarked) [CBK131590] | 99.1
Cc1ccc(S(=O)(=O)CC(=O)N2CCCC3(CCN(C(=O)Cc4c[nH]c5ccccc45)C3)C2)cc1 (centres unmarked) [CBK131595] | 90.4
COc1cc(C(=O)N2CCCC3(CCN(C(=O)Cc4c[nH]c5ccccc45)C3)C2)cc(OC)c1OC (centres unmarked) [CBK131601] | 96
O=C(Cc1c[nH]c2ccccc12)N1CCC2(CCCN(C(=O)c3c(F)cccc3F)C2)C1 (centres unmarked) [CBK131605] | 85.8
O=C(COc1cccnc1)N1CCCC2(CCN(C(=O)Cc3c[nH]c4ccccc34)C2)C1 (centres unmarked) [CBK131608] | 105
Cc1cn(CC(=O)N2CCCC3(CCN(C(=O)c4ccoc4)C3)C2)c(=O)[nH]c1=O (centres unmarked) [CBK131634] | 104
O=C(c1cccnc1)N1CCCC2(CCN(C(=O)c3ccoc3)C2)C1 (centres unmarked) [CBK131640] | 97
COc1ccc(C(=O)N2CCC3(CCCN(C(=O)Cc4ccc(Cl)c(Cl)c4)C3)C2)cc1OC (centres unmarked) [CBK131654] | 98.1
COc1ccc(C(=O)N2CCC3(CCCN(C(=O)c4ccc5ncccc5c4)C3)C2)cc1OC (centres unmarked) [CBK131656] | 92.4
COc1ccc2[nH]cc(CC(=O)N3CCCC4(CCN(C(=O)c5ccc(OC)c(OC)c5)C4)C3)c2c1 (centres unmarked) [CBK131666] | 81.1

SMILES | viability at 28.5 h, 10 µM [%]
O=C(O)CC1SC(Nc2cccc(Cl)c2)=NC1=O (centres unmarked) [CBK131683] | 105
N#Cc1c(-c2ccccc2)cc(-c2ccccc2)nc1SCC(=O)O [CBK131684] | 92.6
O=C(O)CSc1nnc(-c2ccc3c(c2)OCO3)n1-c1ccccc1 [CBK131690] | 105
COc1ccc(-c2nc(Nc3cccc(C(F)(F)F)c3)sc2CC(=O)O)cc1OC [CBK131693] | 97.9
O=C(CSCc1ccc(Cl)cc1)Nc1ccc(O)cc1C(=O)O [CBK131694] | 97.1
COc1cc(-c2nnc(SCC(=O)O)n2-c2ccccc2)cc(OC)c1OC [CBK131695] | 104
CC(=O)Nc1ccc(NC(=O)CSCc2ccc(Cl)cc2Cl)cc1 [CBK131696] | 96.4
O=C(CCCc1ccccc1)Nc1ccc(O)cc1C(=O)O [CBK131699] | 99.7
O=C(CSCc1ccc(Cl)cc1Cl)Nc1cccc(O)c1 [CBK131702] | 110
Cc1ccc(SCC(=O)Nc2ccc(O)cc2C(=O)O)cc1 [CBK131703] | 118
Cc1c(NC(=O)CSCc2ccc(Cl)cc2Cl)cccc1C(=O)O [CBK131704] | 104
COc1ccc(Nc2nc(-c3ccc(F)cc3)cs2)c(OC)c1 [CBK131705] | 87.5
O=C(CSCc1ccc([N+](=O)[O-])cc1)Nc1ccc(O)cc1C(=O)O [CBK131710] | 89.4
NS(=O)(=O)c1ccc(C(=O)N2CCC3(CCN(C(=O)c4ccoc4)C3)C2)cc1 (centres unmarked) [CBK131736] | 95.2
O=C(c1cncnc1)N1CCC2(CCN(C(=O)c3ccoc3)C2)C1 (centres unmarked) [CBK131755] | 86.2
COc1ccc(C(=O)N2CCC3(CCN(C(=O)Cc4c[nH]cn4)C3)C2)cc1OC (centres unmarked) [CBK131768] | 107
COc1ccc(C(=O)N2CCC3(CCN(C(=O)CC4CCCCC4)C3)C2)cc1OC (centres unmarked) [CBK131770] | 94.7
COc1ccc(C(=O)N2CCC3(CCN(C(=O)c4cccc(C#N)c4)C3)C2)cc1OC (centres unmarked) [CBK131773] | 98.3
COc1ccc(C(=O)N2CCC3(CCN(C(=O)/C=C/c4ccc5c(c4)OCO5)C3)C2)cc1OC (centres unmarked) [CBK131775] | 96.6
COc1ccc(C(=O)N2CCC3(CCN(C(=O)Cc4cc(C)no4)C3)C2)cc1OC (centres unmarked) [CBK131784] | 106
COc1ccc(OC(=O)C2COc3ccccc3O2)cc1 (centres unmarked) [CBK131816] | 100
CS(=O)(=O)c1ccc(Nc2cncc(N3CCC(Sc4ccccn4)CC3)c2C#N)cc1 [CBK131843] | 85.2
CCOC(=O)c1sc2nc(N3CCOCC3)c3c(c2c1N)CCCC3 [CBK131870] | 100
CCc1nc2sc(C(N)=O)c(N)c2c2c1CCCC2 [CBK131872] | 101
COc1ccc(CSc2nc(N)c3c4c(sc3n2)CCCC4)cc1 [CBK131876] | 85.8
COc1ccc(-c2c3c(nc4sc(C(=O)N5CCOCC5)c(N)c24)CC(C)(C)CC3=O)cc1 [CBK131884] | 91.7
O=C(O)CCc1ccc(-c2ccc(F)cc2)n1-c1cc(Cl)ccc1O [CBK131891] | 92

SMILES | viability at 28.5 h, 10 µM [%]
O=C(O)CCc1ccc(-c2ccc(Br)cc2)n1-c1ccccc1O [CBK131892] | 93.9
COc1ccc(-c2ccc(CCC(=O)O)n2-c2ccc(N(C)C)cc2)cc1 [CBK131895] | 110
COc1ccc(CCC(=O)Nc2cccc(-c3ccc(OC4CCNCC4)cc3)c2)cc1OC [CBK131925T] | 100
CS(=O)(=O)c1ccc(Nc2ccc3c(c2)COC2(CCN(C(=O)Cc4ccc(F)cc4F)C2)O3)cc1 (centres unmarked) [CBK131948] | 90.8
O=C(Cc1cc(F)cc(F)c1F)N1CCC(Sc2ccc(-c3ccccc3)cc2)CC1 [CBK131952] | 94.5
O=C(c1ccc2c(c1)CCO2)N1CCC(Sc2ccc(-c3ccccc3)cc2)CC1 [CBK131953] | 94.8
O=C(c1ccc2c(c1)CCO2)N1CCC(S(=O)(=O)c2ccc(-c3ccccc3)cc2)CC1 [CBK131957] | 109
CC(C)(C)OC(=O)N1CCC2(CC1)NC(=O)c1cc(-c3cccc(S(C)(=O)=O)c3)ccc1O2 [CBK131967] | 102
CC(=O)c1cccc(-c2ccc3c(c2)C(=O)NC2(CCN(C(=O)OC(C)(C)C)CC2)O3)c1 [CBK131969] | 95.4
O=C(c1c(F)cc(-c2cncc(-c3ccc(O)cc3)n2)cc1F)N1CCOCC1 [CBK131973] | 90.5
COc1cc(CN2CCCC3(CCN(C(=O)c4cc(F)c(F)cc4F)C3)C2)cc(OC)c1OC (centres unmarked) [CBK131988] | 101
O=C(c1cc(F)c(F)cc1F)N1CCC2(CCCN(Cc3ccc(Cl)c(Cl)c3)C2)C1 (centres unmarked) [CBK131990] | 95.1
N#Cc1cccc(CN2CCCC3(CCN(C(=O)c4cc(F)c(F)cc4F)C3)C2)c1 (centres unmarked) [CBK131993] | 100
O=C(c1cc(F)c(F)cc1F)N1CCC2(CCCN(CCS(=O)(=O)c3ccccc3)C2)C1 (centres unmarked) [CBK132003] | 105
O=C(c1cc(F)c(F)cc1F)N1CCC2(CCCN(CCCn3c(=O)[nH]c4ccccc43)C2)C1 (centres unmarked) [CBK132004] | 84.9
O=C1NC(=O)C(CCCCN2CCCC3(CCN(C(=O)c4cc(F)c(F)cc4F)C3)C2)N1 (centres unmarked) [CBK132020] | 97.5
CN(C)C(=O)CN1CCCC2(CCN(C(=O)c3cc(F)c(F)cc3F)C2)C1 (centres unmarked) [CBK132024] | 93.5
Cc1nc(CN2CCCC3(CCN(C(=O)c4cc(F)c(F)cc4F)C3)C2)cs1 (centres unmarked) [CBK132026] | 119
COc1cc(CN2CCCC3(CCN(C(=O)Cc4c[nH]c5ccccc45)C3)C2)cc(OC)c1OC (centres unmarked) [CBK132027] | 99.5
O=C(Cc1c[nH]c2ccccc12)N1CCC2(CCCN(Cc3c(F)cccc3F)C2)C1 (centres unmarked) [CBK132031] | 115
N#Cc1cccc(CN2CCCC3(CCN(C(=O)Cc4c[nH]c5ccccc45)C3)C2)c1 (centres unmarked) [CBK132032] | 103
NC(=O)CCN1CCCC2(CCN(C(=O)Cc3c[nH]c4ccccc34)C2)C1 (centres unmarked) [CBK132041] | 106
O=C(Cc1c[nH]c2ccccc12)N1CCC2(CCCN(CCO)C2)C1 (centres unmarked) [CBK132045] | 95.9
NC(=O)CN1CCCC2(CCN(C(=O)Cc3c[nH]c4ccccc34)C2)C1 (centres unmarked) [CBK132046] | 87.4
O=C(CN1CCCC2(CCN(C(=O)Cc3c[nH]c4ccccc34)C2)C1)Nc1ncccn1 (centres unmarked) [CBK132048] | 86.7

Same assay, conditions: human, hela cells, % viability, bulk resorufin, single well

SMILES | viability at 28.5 h, 10 µM [%]
CCOC(=O)N1CCC2(CC1)OCc1ccc(C#N)cc1O2 [CBK131679] | 97.2
